{"source": "patent US8921314B2", "about": "“Conjugates of GLP-1 agonists and uses thereof” (Angiochem, Inc., priority 2008, dated 2014)", "key": {"[1]": {"system": "mouse brain", "settings": "in vivo", "experimental": "To measure brain uptake of the exendin-4/Angiopep-2 conjugates, we used an in situ perfusion assay. […] The uptake of labeled exendin-4 and the exendin-4/Angiopep-2 conjugates was measured using the in situ brain perfusion method adapted in our laboratory for the study of drug uptake in the mouse brain (Dagenais et al., J Cereb Blood Flow Metab. 20:381-6, 2000; Cisternino et al., Pharm Res 18, 183-190, 2001). Briefly, the right common carotid artery of mice anesthetized with ketamine/xylazine (140/8 mg/kg i.p.) was exposed and ligated at the level of the bifurcation of the common carotid, rostral to the occipital artery. The common carotid was then catheterized rostrally with polyethylene tubing filled with heparin (25 U/ml) and mounted on a 26-gauge needle. The syringe containing the perfusion fluid ([^125I]-proteins or [^125I]-peptides in Krebs/bicarbonate buffer at pH 7.4, gassed with 95% O2 and 5% CO2) was placed in an infusion pump (Harvard pump PHD 2000; Harvard Apparatus) and connected to the catheter. Prior to the perfusion, the contralateral blood flow contribution was eliminated by severing the heart ventricles. The brain was perfused for 5 min at a flow rate of 1.15 ml/min. After perfusion of radiolabeled molecules, the brain was further perfused for 60 s with Krebs buffer, to wash away excess [^125I]-proteins. […]"}, "[2]": {"system": "ob/ob mice", "test": "treatment of obese (ob/ob) mice with exendin-4/Angiopep-2 conjugate", "format": "in vivo, mouse", "settings": "Q1D, higher doses (exendin-4 30 μg/kg, Exen-An2 48 μg/kg), vs control", "protocol": "Obese mice (ob/ob mice) were administered the [Lys^39-MHA]exendin-4/Angiopep-2-Cys-NH2 conjugate (Exen-An2).\nA 1.6 μg/kg dose of Exen-An2 is equivalent to a 1 μg/kg dose of exendin-4. The body weight of each mouse was measured daily. Food intake was estimated based on the mean values for each group, and glycemia was measured one hour following treatment."}, "[3]": {"system": "DIO mice", "test": "reduction of glycemia in DIO mice after bolus injection", "format": "in vivo, mouse", "settings": "vs control", "protocol": "We also tested the ability of the exendin-4-Angiopep-2 dimer conjugate to reduce glycemia in DIO mice. Mice were injected with a bolus containing a control, exendin-4, or the exendin-4-Angiopep-2 dimer conjugate."}}, "note": "Entries after “also recorded” stand apart in the source; their conditions may differ."}
{"substance": "[Lys^39-MHA]exendin-4/Angiopep-2-Cys-NH2 [Exen-An2]", "values": [{"measurement": "brain distribution", "setting": "[1]", "value": 10, "unit": "ml/100 g/2 min"}]}
{"substance": "exendin-4 [reference compound]", "values": [{"measurement": "body weight gain", "setting": "[2]; after 10 days, FIG. 5", "value": "lower than the control; also recorded: reduce weight gain"}, {"measurement": "food intake", "setting": "[2]; FIG. 6", "value": "reduced; also recorded: reduce food intake"}, {"measurement": "brain distribution", "setting": "[1]", "value": 0.2, "unit": "ml/100 g/2 min"}, {"measurement": "glycemia", "setting": "[3]", "value": "reduced glycemia"}]}
